{"source": "patent US6921774B2", "about": "“Compounds and their use as glycine transport inhibitors” (H. Lundbeck A/S, priority 2000, dated 2005)", "note": "Structures can show the parent of a compound that is named as a salt.", "data": [{"biological_target": "T1, human GlyT-1b (Homo sapiens, UniProt P48067)", "T1 construct": "expressed in transfected cells", "T1 sequence (P48067 1-652 isoform P48067-3)": "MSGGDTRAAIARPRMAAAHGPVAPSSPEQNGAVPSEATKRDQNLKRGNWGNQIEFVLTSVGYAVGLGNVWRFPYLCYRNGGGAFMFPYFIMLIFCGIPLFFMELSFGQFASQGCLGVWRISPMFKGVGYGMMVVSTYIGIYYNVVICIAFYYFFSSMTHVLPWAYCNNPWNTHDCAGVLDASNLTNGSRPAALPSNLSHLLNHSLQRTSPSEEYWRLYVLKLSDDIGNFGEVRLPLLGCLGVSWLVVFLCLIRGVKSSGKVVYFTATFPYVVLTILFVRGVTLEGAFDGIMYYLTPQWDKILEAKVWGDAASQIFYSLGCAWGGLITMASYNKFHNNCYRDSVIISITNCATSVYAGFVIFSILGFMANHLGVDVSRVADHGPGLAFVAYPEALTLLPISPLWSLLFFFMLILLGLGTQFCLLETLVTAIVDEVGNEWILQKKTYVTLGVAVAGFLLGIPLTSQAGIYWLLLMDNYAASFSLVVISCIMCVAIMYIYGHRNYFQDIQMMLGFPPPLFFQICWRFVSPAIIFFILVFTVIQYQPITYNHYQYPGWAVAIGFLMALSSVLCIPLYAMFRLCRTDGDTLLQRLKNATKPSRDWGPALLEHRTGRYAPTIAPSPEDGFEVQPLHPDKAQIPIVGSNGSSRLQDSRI", "assay": "[3H]-Glycine uptake in cells transfected with human GlyT-1b", "assay_type": "cell-based", "conditions": "6 min pre-incubation, 10 nM 3H-glycine, 15 min, read-out: IC50 GlyT-1b (Inhibition of Glycine Transport by hGlyT-)", "experimental": "The compounds of the invention were tested in a well-recognised and reliable test measuring glycine uptake:\nCells transfected with the human GlyT-1b were seeded in 96 well plates. Prior to the experiment the cells were washed twice in HBS (10 mM Hepes-tris (pH 7.4), 2.5 mM KCl, 1 mM CaCl2, 2.5 mM MgSO4,) and pre-incubated with test compound for 6 minutes. Afterwards, 10 nM ^3H-glycine was added to each well and the incubation was continued for 15 minutes. The cells were washed twice in HBS. Scintillation fluid was added and the Plates were counted on a Trilux (Wallac) scintillation counter.", "units": {"IC50": "µM"}, "values": [{"compound": "C[C@@H](C(=O)O)N(C)CCCC1(c2ccc(Cl)cc2)CCc2cc(Cl)ccc21", "note": "(some centres unmarked) [Compound 3aa, N-{3-[5-Chloro-1-(4-chloro-phenyl)-indan-1-yl]-propyl}-N-methylalanine hydrochloride]", "IC50": 0.47}, {"compound": "CN(CCCC1(c2ccc(Cl)cc2)OCc2cc(Br)ccc21)CC(=O)O", "note": "(centres unmarked) [Compound 3ae, N-{3-[5-Bromo-1-(4-chlorophenyl)-1,3-dihydroisobenzofuran-1-yl]-1-propyl}-N-methylglycine]", "IC50": 4}, {"compound": "CN(CCC1(c2ccc(Cl)cc2)OC(C)(C)c2ccccc21)CC(=O)O", "note": "(centres unmarked) [Compound 3af, N-{2-[1-(4-Chloro-phenyl)-3,3-dimethyl-1,3-dihydro-isobenzofuran-1-yl]-ethyl}-N-methylglycine]", "IC50": 3.5}, {"compound": "Cc1ccc(-c2ccc3c(c2)COC3(CCN(C)CC(=O)O)c2ccc(Cl)cc2)cc1", "note": "(centres unmarked) [Compound 3al, N-{3-[1-(4-Chloro-phenyl)-5-(4-methyl-phenyl)-1,3-dihydro-isobenzofuran-1-yl]-ethyl}-N-methyl-glycine]", "IC50": 2.2}, {"compound": "CN(CCCC1(c2ccc(Cl)cc2)OCc2c(Cl)cccc21)CC(=O)O", "note": "(centres unmarked) [Compound 3k, N-{3-[4-chloro-1-(4-chlorophenyl)-1,3-dihydroisobenzofuran-1-yl]-1-propyl}-N-methylglycine hydrochloride.]", "IC50": 4.1}, {"compound": "C[C@@H](C(=O)O)N(C)CCCC1(c2ccc(Cl)cc2)OCc2cc(Cl)ccc21", "note": "(some centres unmarked) [Compound 3l, N-{3-[5-chloro-1-(4-chlorophenyl)-1,3-dihydroisobenzofuran-1-yl]-1-propyl}-N-methylalanine hydrochloride]", "IC50": 5.5}, {"compound": "CN(CCCC1(c2ccc(Cl)cc2)OCc2ccc(Cl)cc21)CC(=O)O", "note": "(centres unmarked) [Compound 3m, N-{3-[6-chloro-1-(4-chlorophenyl)-1,3-dihydroisobenzofuran-1-yl]-1-propyl}-N-methylglycine hydrochloride.]", "IC50": 7.2}, {"compound": "Cc1ccc(C2(CCCN(C)CC(=O)O)OCc3ccc(Cl)cc32)cc1", "note": "(centres unmarked) [Compound 3n, N-{3-[6-chloro-1-(4-methylphenyl)-1,3-dihydroisobenzofuran-1-yl]-1-propyl}-N-methylglycine hydrochloride.]", "IC50": 9.6}, {"compound": "Cc1cc(C2(CCCN(C)CC(=O)O)OCc3cc(C#N)ccc32)ccc1F", "note": "(centres unmarked) [Compound 3t, N-{3-[5-cyano-1-(3-methyl-4-fluorophenyl)-1,3-dihydroisobenzofuran-1-yl]-1-propyl}-N-methylglycine hydrochloride.]", "IC50": 5.7}, {"compound": "COc1ccc(C2(CCCN(C)CC(=O)O)OCc3cc(C#N)ccc32)cc1", "note": "(centres unmarked) [Compound 3v, N-{3-[5-cyano-1-(4-methoxyphenyl)-1,3-dihydroisobenzofuran-1-yl]-1-propyl}-N-methylglycine hydrochloride]", "IC50": 8.6}, {"compound": "CN(CCCC1(c2ccc(Cl)cc2)CCc2cc(Cl)ccc21)CC(=O)O", "note": "(centres unmarked) [Compound 3z, N-{3-[5-Chloro-1-(4-chloro-phenyl)-indan-1-yl]-propyl}-N-methylglycine hydrochloride]", "IC50": 1.1}, {"compound": "CN(CCC1(c2ccc(Cl)cc2)OCc2cc(-c3cccs3)ccc21)CC(=O)O", "note": "(centres unmarked) [Compound 4c, N-{3-[1-(4-Chloro-phenyl)-5-(2-thiophenyl)-1,3-dihydro-isobenzofuran-1-yl]-ethyl}-N-methyl-glycine]", "IC50": 1.2}, {"compound": "Cc1ccc(-c2ccc3c(c2)COC3(CCCN(C)CC(=O)O)c2ccc(Cl)cc2)cc1", "note": "(centres unmarked) [Compound 4d, N-{3-[1-(4-Chloro-phenyl)-5-(4-methyl-phenyl)-1,3-dihydro-isobenzofuran-1-yl]-propyl}-N-methyl-glycine]", "IC50": 1.5}, {"compound": "Cc1ccccc1-c1ccc2c(c1)COC2(CCN(C)CC(=O)O)c1ccc(Cl)cc1", "note": "(centres unmarked) [Compound 4j, N-{3-[1-(4-Chloro-phenyl)-5-(2-methyl-phenyl)-1,3-dihydro-isobenzofuran-1-yl]-ethyl}-N-methyl-glycine]", "IC50": 0.71}, {"compound": "CN(CCC1(c2ccc(Cl)cc2)OCc2cc(-c3cc(Cl)ccc3Cl)ccc21)CC(=O)O", "note": "(centres unmarked) [Compound 4k, N-{3-[1-(4-Chloro-phenyl)-5-(2,5-dichloro-phenyl)-1,3-dihydro-isobenzofuran-1-yl]-ethyl}-N-methyl-glycine]", "IC50": 0.95}, {"compound": "N-[2-(3-methyl-1-phenyl-indan-1-yl)-ethyl]-amino}-N-methyl alanine [Compound 3ak]", "IC50": 2.2}, {"compound": "N-{3-[1-(4-methylphenyl)-1,3-dihydroisobenzofuran-1-yl]-1-propyl}-N-methylglycine. hydrochloride [Compound 3f]", "IC50": 5.4}]}]}
